# Source: article PMC11435058, “Synthesis of New Thiazole-Privileged Chalcones as Tubulin Polymerization Inhibitors with Potential Anticancer Activities” (Pharmaceuticals, 2024)
# Assays:
# Conditions in all cases: Homo sapiens
# [1] = tested on: CAKI-1; experiment: NCI-60 anticancer screen (SRB; single dose and five doses)
# [2] = tested on: HCC-2998; experiment: as above
# [3] = tested on: CCRF-CEM; experiment: NCI-60 anticancer screen (SRB; single dose 10 μM and five doses)
# [4] = tested on: TK-10; experiment: NCI-60 anticancer screen (SRB; single dose and five doses)
# [5] = tested on: OVCAR-5; experiment: as above
# [6] = tested on: SF-539; experiment: as above
# [7] = tested on: MDA-MB-231/ATCC; experiment: as above
# [8] = tested on: OVCAR-4; experiment: as above
# [9] = tested on: UO-31; experiment: as above
# [10] = tested on: SK-MEL-5; experiment: as above
# [11] = tested on: NCI-H23; experiment: as above
# [12] = tested on: SR; experiment: as above
# [13] = tested on: HCT-116; experiment: as above
# [14] = tested on: RPMI-8226; experiment: as above
# [15] = tested on: SNB-19; experiment: cells
# [16] = tested on: SK-OV-3; experiment: NCI-60 anticancer screen (SRB; single dose and five doses)
# [17] = tested on: IGROV1; experiment: as above
# [18] = tested on: OVCAR-8; experiment: as above
# [19] = tested on: LOX IMVI; experiment: as above
# [20] = tested on: SF-295; experiment: as above
# [21] = tested on: MDA-MB-435; experiment: as above
# [22] = tested on: HOP-62; experiment: as above
# [23] = tested on: HS 578T; experiment: as above
# [24] = tested on: MCF7; experiment: as above
# [25] = tested on: EKVX; experiment: as above
# [26] = tested on: NCI/ADR-RES; experiment: as above
# [27] = tested on: HT29; experiment: as above
# [28] = tested on: DU-145; experiment: as above
# [29] = tested on: KM12; experiment: as above
# [30] = 48 h, read-out: Growth Percentage
smiles,measurement,setting,value
"Cc1[nH]c(=S)sc1C(=O)/C=C/c1cccc(Cl)c1 [2e, (E)-3-(3-Chlorophenyl)-1-(4-Methyl-2-Thioxo-2,3-Dihydrothiazol-5-yl)Prop-2-En-1-One]",GI50,[1]; CAKI-1,4.68 µM
same,IC50,[1]; CAKI-1,15.5 µM
same,activity at 10 µM,"[1]; CAKI-1, 48 h, read-out: Growth Percentage",23.9%
same,CC50,"[1]; CAKI-1, read-out: LC50",69.2 µM
same,IC (TGI),"[1]; CAKI-1, read-out: TGI",20.9 µM
same,GI50,[2]; HCC 2998,2.57 µM
same,IC50,[2]; HCC 2998,4.37 µM
same,activity at 10 µM,"[2]; HCC 2998, 48 h, read-out: Growth Percentage",13.9%
same,CC50,"[2]; HCC 2998, read-out: LC50",28.2 µM
same,GI50,[3],2.45 µM
same,IC50,[3],3.72 µM
same,activity at 10 µM,[3]; [30],15.2%
same,IC (TGI),[3]; read-out: TGI,7.94 µM
same,GI50,[4]; TK-10,19.5 µM
same,IC50,[4]; TK-10,45.7 µM
same,CC50,"[4]; TK-10, read-out: LC50",> 100 µM
same,IC (TGI),"[4]; TK-10, read-out: TGI",47.9 µM
same,GI50,[5]; OVCAR-5,5.25 µM
same,IC50,[5]; OVCAR-5,15.5 µM
same,activity at 10 µM,"[5]; OVCAR-5, 48 h, read-out: Growth Percentage",36.4%
same,CC50,"[5]; OVCAR-5, read-out: LC50",57.5 µM
same,IC (TGI),"[5]; OVCAR-5, read-out: TGI",19.9 µM
same,GI50,[6]; SF-539,2 µM
same,IC50,[6]; SF-539,3.63 µM
same,activity at 10 µM,"[6]; SF-539, 48 h, read-out: Growth Percentage",-10.7%
same,IC (TGI),"[6]; SF-539, read-out: TGI",4.07 µM
same,GI50,[7]; MDA-MB-231,2.45 µM
same,IC50,[7]; MDA-MB-231,6.17 µM
same,activity at 10 µM,"[7]; MDA-MB-231, 48 h, read-out: Growth Percentage",-0.43%
same,CC50,"[7]; MDA-MB-231, read-out: LC50",39.8 µM
same,IC (TGI),"[7]; MDA-MB-231, read-out: TGI",6.92 µM
same,GI50,[8]; OVCAR-4,4.47 µM
same,IC50,[8]; OVCAR-4,12.9 µM
same,activity at 10 µM,"[8]; OVCAR-4, 48 h, read-out: Growth Percentage",31.7%
same,CC50,"[8]; OVCAR-4, read-out: LC50",> 100 µM
same,IC (TGI),"[8]; OVCAR-4, read-out: TGI",41.7 µM
same,GI50,[9]; UO-31,1.55 µM
same,IC50,[9]; UO-31,2.88 µM
same,activity at 10 µM,"[9]; UO-31, 48 h, read-out: Growth Percentage",34.3%
same,IC (TGI),"[9]; UO-31, read-out: TGI",3.09 µM
same,GI50,[10]; SK-MEL-5,4.79 µM
same,IC50,[10]; SK-MEL-5,9.12 µM
same,activity at 10 µM,"[10]; SK-MEL-5, 48 h, read-out: Growth Percentage",16.1%
same,CC50,"[10]; SK-MEL-5, read-out: LC50",41.7 µM
same,IC (TGI),"[10]; SK-MEL-5, read-out: TGI",17 µM
same,GI50,[11]; NCI-H23,2.09 µM
same,IC50,[11]; NCI-H23,3.63 µM
same,activity at 10 µM,"[11]; NCI-H23, 48 h, read-out: Growth Percentage",18%
same,CC50,"[11]; NCI-H23, read-out: LC50",12.9 µM
same,IC (TGI),"[11]; NCI-H23, read-out: TGI",4.68 µM
same,GI50,[12],2.63 µM
same,IC50,[12],3.89 µM
same,activity at 10 µM,[12]; [30],3.42%
same,CC50,[12]; read-out: LC50,> 100 µM
same,IC (TGI),[12]; read-out: TGI,> 100 µM
same,GI50,[13]; HCT-116,1.82 µM
same,IC50,[13]; HCT-116,2.95 µM
same,activity at 10 µM,"[13]; HCT-116, 48 h, read-out: Growth Percentage",3.28%
same,CC50,"[13]; HCT-116, read-out: LC50",7.41 µM
same,IC (TGI),"[13]; HCT-116, read-out: TGI",3.63 µM
same,GI50,[14]; RPMI-8226,2.04 µM
same,IC50,[14]; RPMI-8226,3.72 µM
same,activity at 10 µM,"[14]; RPMI-8226, 48 h, read-out: Growth Percentage",10.4%
same,CC50,"[14]; RPMI-8226, read-out: LC50",> 100 µM
same,IC (TGI),"[14]; RPMI-8226, read-out: TGI",5.5 µM
same,IC50,[15]; SNB-19,17 µM
same,CC50,"[15]; SNB-19, read-out: LC50",49 µM
same,IC (TGI),"[15]; SNB-19, read-out: TGI",21.4 µM
same,GI50,[16]; SK-OV-3,17.4 µM
same,IC50,[16]; SK-OV-3,51.3 µM
same,activity at 10 µM,"[16]; SK-OV-3, 48 h, read-out: Growth Percentage",59.9%
same,CC50,"[16]; SK-OV-3, read-out: LC50",> 100 µM
same,IC (TGI),"[16]; SK-OV-3, read-out: TGI",> 100 µM
same,GI50,[17]; IGROV-1,2.45 µM
same,IC50,[17]; IGROV-1,4.17 µM
same,activity at 10 µM,"[17]; IGROV-1, 48 h, read-out: Growth Percentage",34%
same,CC50,"[17]; IGROV-1, read-out: LC50",> 100 µM
same,IC (TGI),"[17]; IGROV-1, read-out: TGI",6.46 µM
same,GI50,[18]; OVCAR-8,2.69 µM
same,IC50,[18]; OVCAR-8,3.89 µM
same,activity at 10 µM,"[18]; OVCAR-8, 48 h, read-out: Growth Percentage",10.4%
same,CC50,"[18]; OVCAR-8, read-out: LC50",> 100 µM
same,IC (TGI),"[18]; OVCAR-8, read-out: TGI",7.59 µM
same,GI50,[19],1.66 µM
same,IC50,[19],2.88 µM
same,activity at 10 µM,[19]; [30],-26.1%
same,CC50,[19]; read-out: LC50,5.75 µM
same,IC (TGI),[19]; read-out: TGI,3.09 µM
same,GI50,[20]; SF-295,4.37 µM
same,IC50,[20]; SF-295,11.5 µM
same,activity at 10 µM,"[20]; SF-295, 48 h, read-out: Growth Percentage",41.8%
same,CC50,"[20]; SF-295, read-out: LC50",43.6 µM
same,IC (TGI),"[20]; SF-295, read-out: TGI",17 µM
same,GI50,[21]; MDA-MB-435,2.09 µM
same,IC50,[21]; MDA-MB-435,3.55 µM
same,activity at 10 µM,"[21]; MDA-MB-435, 48 h, read-out: Growth Percentage",17.3%
same,CC50,"[21]; MDA-MB-435, read-out: LC50",17 µM
same,IC (TGI),"[21]; MDA-MB-435, read-out: TGI",5.01 µM
same,GI50,[22]; HOP-62,2.57 µM
same,IC50,[22]; HOP-62,4.68 µM
same,activity at 10 µM,"[22]; HOP-62, 48 h, read-out: Growth Percentage",10.4%
same,CC50,"[22]; HOP-62, read-out: LC50",74.1 µM
same,IC (TGI),"[22]; HOP-62, read-out: TGI",6.31 µM
same,GI50,[23],3.09 µM
same,IC50,[23],> 100 µM
same,activity at 10 µM,[23]; [30],47.2%
same,CC50,[23]; read-out: LC50,> 100 µM
same,IC (TGI),[23]; read-out: TGI,85.1 µM
same,GI50,[24]; MCF7,3.31 µM
same,IC50,[24]; MCF7,8.13 µM
same,activity at 10 µM,"[24]; MCF7, 48 h, read-out: Growth Percentage",7.9%
same,CC50,"[24]; MCF7, read-out: LC50",37.1 µM
same,IC (TGI),"[24]; MCF7, read-out: TGI",12.3 µM
same,GI50,[25],10.5 µM
same,IC50,[25],24 µM
same,activity at 10 µM,[25]; [30],34.7%
same,CC50,[25]; read-out: LC50,95.5 µM
same,IC (TGI),[25]; read-out: TGI,31.6 µM
same,GI50,[26],2.88 µM
same,IC50,[26],5.01 µM
same,activity at 10 µM,[26]; [30],-5.11%
same,CC50,[26]; read-out: LC50,> 100 µM
same,IC (TGI),[26]; read-out: TGI,> 100 µM
same,GI50,[27]; HT-29,2.24 µM
same,IC50,[27]; HT-29,3.55 µM
same,activity at 10 µM,"[27]; HT-29, 48 h, read-out: Growth Percentage",29.9%
same,CC50,"[27]; HT-29, read-out: LC50",12.6 µM
same,IC (TGI),"[27]; HT-29, read-out: TGI",4.9 µM
same,GI50,[28]; DU-145,3.24 µM
same,IC50,[28]; DU-145,4.79 µM
same,activity at 10 µM,"[28]; DU-145, 48 h, read-out: Growth Percentage",16.1%
same,CC50,"[28]; DU-145, read-out: LC50",42.7 µM
same,IC (TGI),"[28]; DU-145, read-out: TGI",11.5 µM
same,GI50,[29]; KM12,1.95 µM
same,IC50,[29]; KM12,3.39 µM
same,activity at 10 µM,"[29]; KM12, 48 h, read-out: Growth Percentage",-30.7%
same,IC (TGI),"[29]; KM12, read-out: TGI",3.89 µM
